Test results taken from publication PMC6017101, “In Silico and In Vitro Study of the Bromelain-Phytochemical Complex Inhibition of Phospholipase A2 (Pla2)” (Molecules : A Journal of Synthetic Chemistry and Natural …, 2018).

Target: T1, porcine group IB phospholipase A2 (pG-IB); Pla2 (Sus scrofa, UniProt P00592)
T1 construct: gene PLA2G1B; commercial enzyme (Sigma-Aldrich); no tag stated
Assay: colorimetric phenol red assay, […] nm, lecithin hydrolysis; median-effect plot
Format: biochemical
Conditions: read-out: Dm (mg/mL) ^a (converted)

T1 sequence (P00592 23-146): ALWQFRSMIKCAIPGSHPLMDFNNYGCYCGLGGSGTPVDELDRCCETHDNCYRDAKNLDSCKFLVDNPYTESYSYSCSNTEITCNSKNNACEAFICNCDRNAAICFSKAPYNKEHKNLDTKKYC

IC50 | Compound
200 µM | O=c1cc(-c2ccc(O)c(-c3c(O)cc(O)c4c(=O)cc(-c5ccc(O)cc5)oc34)c2)oc2cc(O)cc(O)c12 [amenthoflavone]
328 µM | C[C@H]1[C@H](C)CC[C@]2(C(=O)O[C@@H]3O[C@H](CO[C@@H]4O[C@H](CO)[C@@H](O[C@@H]5O[C@@H](C)[C@H](O)[C@@H](O)[C@H]5O)[C@H](O)[C@H]4O)[C@@H](O)[C@H](O)[C@H]3O)CC[C@]3(C)C(=CC[C@@H]4[C@@]5(C)C[C@@H](O)[C@H](O)[C@@](C)(CO)[C@@H]5CC[C@]43C)[C@H]12 [asiaticoside]
2330 µM | C[C@@H]1CC[C@@]2(OC1)O[C@H]1C[C@H]3[C@@H]4CC=C5C[C@@H](O)CC[C@]5(C)[C@H]4CC[C@]3(C)[C@H]1[C@@H]2C [diosgenin]
